Assay results from paper PMC7881012, “Human ACE2 peptide-mimics block SARS-CoV-2 pulmonary cells infection” (Communications Biology, 2021).
pIC50, pKd: −log10 of the molar value. Read-outs that look alike come from different tables or passages of the source. Square brackets hold non-standard residues; d marks the D form. Peptide text beside a SMILES is read from it. hTyr = N[C@@H](CCc1ccc(O)cc1)C(=O)O

Columns and labels:
[1] = system: SARS-CoV-2 clinical isolate SARS-CoV-2/PSL2020 in Vero-E6 cells; settings: for % Inhibition, Moyenne / % Inhibition, Q2 (Median): clinical isolate /PSL2020 in Vero-E6 cells, 48 h, 10 µM; for % Inhibition of SARSCoV-2 replication at 10 μM: mean of at least three independent experiments
[2] = HPLC retention time (LC-MS method B); assay type: physicochemical; settings: method B: X-Select CSH C18 XP, 0.1% formic acid water/acetonitrile, 5-100% B in 3.2 min, 1.8 mL min^−1, 40 °C; used as indicator of hydrophobicity
[3] = Helical content by circular dichroism; assay type: physicochemical; settings: 60 µM peptide, 50 mM sodium phosphate buffer pH 7.4, 25 °C, DichroWeb CDSSTR deconvolution
Source text: The conformation of synthesized peptides in aqueous solution was investigated by circular dichroism (CD) spectroscopy. […] The deconvolution of the CD spectra using DichroWeb[25] allowed us to estimate the helical population for each peptide, which is reported in Table 1. Overall, an excellent agreement was observed between the Agadir-computed values and the experimental helical population inferred from CD data. […] The introduction of a proline residue in peptide P5 has a strong destabilizing effect on helical conformation (17%) whereas Leu/hTyr substitution only led to a slight decrease of the helical content (P7 versus P6 and P10 versus P8).
Fig. 2 Far-UV CD spectra of synthesized peptides. […] CD measurements are reported as molar ellipticity per residue.
CD spectra were recorded on a Jasco J-815 CD spectropolarimeter equipped with a Peltier temperature controller. Data were obtained at 25 °C over a wavelength range between 185 nm and 270 nm, using a wavelength interval of 0.2 nm and a scan rate of 20 nm min^−1. Peptide samples were prepared at a concentration of 60 µM in 50 mM sodium phosphate buffer, pH 7.4, in a quartz cell of 1 mm path length. CD experiments were processed and plotted with R program. CD spectra were analyzed using DICHROWEB web server and CDSSTR deconvolution algorithm.

Calu-3 cells [4] = system: Calu-3 cells
Vero-E6 cells [5] = settings: 10 µM
[6] = system: SARS-CoV-2 clinical isolate SARS-CoV-2/PSL2020 in Calu-3 cells; settings: clinical isolate /PSL2020 in Calu-3 cells, 48 h
[7] = system: SARS-CoV-2 clinical isolate SARS-CoV-2/PSL2020 in Calu-3 cells; assay type: cell-based; settings: for efficacy in reducing SARS-CoV-2 viral titers: pulmonary cells, 1 µM
Vero-E6 cells [8] = settings: for toxicity in Vero-E6: MTT 0.1-10 µM and annexin-V/PI 10 µM, 24, 48 or 72 h (Fig. 3c)
Calu-3 cells [9] = settings: 10 μM (150 times the IC50); MTT and annexin-V/PI, 24, 48 or 72 h (Fig. 3f)
[10] = biological target: SARS-CoV-2 spike RBD (Fc-tagged 2019-nCoV RBD-SD1) (Severe acute respiratory syndrome coronavirus 2, UniProt P0DTC2); assay: biochemical; assay type: binding; settings: for kon: read-out: ka, association constant; for koff: read-out: kdis, dissociation constant; for pKd: Table 1 of the earlier manuscript version, quoted by Reviewer #2, superseded
[11] = EXP1, peptide 10 µM, 24 h (0 µM: 16%)
[12] = EXP1, peptide 10 µM, 48 h (0 µM: 18%)
[13] = EXP1, peptide 10 µM, 72 h (0 µM: 23%)
[14] = EXP2, peptide 10 µM, 24 h (0 µM: 13%)
[15] = EXP2, peptide 10 µM, 48 h (0 µM: 17%)
[16] = EXP2, peptide 10 µM, 72 h (0 µM: 20%)
[17] = EXP3, peptide 10 µM, 24 h (Vehicle: 15%)
[18] = EXP3, peptide 10 µM, 48 h (Vehicle: 18%)
[19] = EXP3, peptide 10 µM, 72 h (Vehicle: 22%)
[20] = BLI EXP1, sample conc. ACE2 10 nM, P8 100 nM, P9 and P10 1000 nM
[21] = BLI EXP2, sample conc. ACE2 100 nM, P8 1000 nM, P9 and P10 1111 nM
[22] = BLI EXP3, sample conc. ACE2 100 nM, P9 10000 nM, P10 1000 nM

H-SALEEQLKTFLDKFLHELEDLLYQLALAL-NH2 [P6]
% Inhibition, Moyenne [1]: 6.5%
% Inhibition, Q2 (Median) [1]: 4.9%
RT, HPLC retention time [2]: 2,74 min
Experimental helical content% [3]: 80%

H-SALEEQLKTFLDKFLHELEDLLYQLSL-NH2 [P2]
% Inhibition of SARSCoV-2 replication at 10 μM [1]: 16%
% Inhibition, Moyenne [1]: 16.0%
% Inhibition, Q2 (Median) [1]: 20.0%
RT, HPLC retention time [2]: 1.47 min
Experimental helical content% [3]: 70%

CSCC[C@H](NC(=O)[C@H](Cc1ccccc1)NC(=O)[C@H](CCCCN)NC(=O)[C@H](CC(=O)O)NC(=O)[C@H](CC(C)C)NC(=O)[C@H](Cc1ccccc1)NC(=O)[C@@H](NC(=O)[C@H](CCCCN)NC(=O)[C@H](CCc1ccc(O)cc1)NC(=O)[C@H](CCC(N)=O)NC(=O)[C@H](CCC(=O)O)NC(=O)[C@H](CCC(=O)O)NC(=O)[C@H](CC(C)C)NC(=O)[C@H](C)NC(=O)[C@@H](N)CO)[C@@H](C)O)C(=O)N[C@@H](Cc1c[nH]cn1)C(=O)N[C@@H](CCC(=O)O)C(=O)N[C@@H](CC(C)C)C(=O)N[C@@H](CCC(=O)O)C(=O)N[C@@H](CC(=O)O)C(=O)N[C@@H](CC(C)C)C(=O)N[C@@H](CC(C)C)C(=O)N[C@@H](Cc1ccc(O)cc1)C(=O)N[C@@H](CCC(N)=O)C(=O)N[C@@H](CC(C)C)C(=O)N[C@@H](C)C(=O)N[C@@H](CC(C)C)C(N)=O [P10] (H-SALEEQ[hTyr]KTFLDKFMHELEDLLYQLAL-NH2)
Cell death (AnnV+PI) (Calu-3 cells [4]; [11]): 23%
Cell death (AnnV+PI) (Calu-3 cells [4]; [12]): 19%
Cell death (AnnV+PI) (Calu-3 cells [4]; [13]): 23%
Cell death (AnnV+PI) (Calu-3 cells [4]; [14]): 17%
Cell death (AnnV+PI) (Calu-3 cells [4]; [15]): 20%
Cell death (AnnV+PI) (Calu-3 cells [4]; [16]): 22%
Cell death (AnnV+PI) (Calu-3 cells [4]; [17]): 19%
Cell death (AnnV+PI) (Calu-3 cells [4]; [18]): 19%
Cell death (AnnV+PI) (Calu-3 cells [4]; [19]): 19%
% Inhibition of SARSCoV-2 replication at 10 μM [1]: 95%
% Inhibition, Moyenne [1]: 95.1%
% Inhibition, Q2 (Median) [1]: 95.1%
Cell death (AnnV+PI) (Vero-E6 cells [5]; 24 h, EXP1, flow cytometry): 4%
Cell death (AnnV+PI) (Vero-E6 cells [5]; 24 h, EXP2, flow cytometry): 5.38%
Cell death (AnnV+PI) (Vero-E6 cells [5]; 24 h, EXP3, flow cytometry): 5.49%
Cell death (AnnV+PI) (Vero-E6 cells [5]; 48 h, EXP1, flow cytometry): 7%
Cell death (AnnV+PI) (Vero-E6 cells [5]; 48 h, EXP2, flow cytometry): 5.69%
Cell death (AnnV+PI) (Vero-E6 cells [5]; 48 h, EXP3, flow cytometry): 6.33%
Cell death (AnnV+PI) (Vero-E6 cells [5]; 72 h, EXP1, flow cytometry): 4%
Cell death (AnnV+PI) (Vero-E6 cells [5]; 72 h, EXP2, flow cytometry): 2.55%
Cell death (AnnV+PI) (Vero-E6 cells [5]; 72 h, EXP3, flow cytometry): 3%
pIC50 [6]: 7.38
SARSCoV-2 virus titer at 1 μM (PFU mL^−1) on Calu-3 [7]: 0 PFU mL^−1
efficacy in reducing SARS-CoV-2 viral titers [7]: 100%
RT, HPLC retention time [2]: 2,34 min
Cell viability (MTT) (Vero-E6 cells [8]; 72 h, 1 µM): 96%
toxicity in Vero-E6 (Vero-E6 cells [8]): devoid of toxicity
cytotoxicity in uninfected Calu-3 cells (Calu-3 cells [9]): no cytotoxicity
kon [10, 20]: 2490 M⁻¹ s⁻¹
koff [10, 20]: < 1e-07 s⁻¹
kon [10, 21]: 1410 M⁻¹ s⁻¹
koff [10, 21]: < 1e-07 s⁻¹
kon [10, 22]: 1430 M⁻¹ s⁻¹
koff [10, 22]: < 1e-07 s⁻¹
pKd [10]: > 9.00
Experimental helical content% [3]: 56%

H-SALEEQLKTFLDKFLHELEDPLYQLAL-NH2 [P5]
% Inhibition of SARSCoV-2 replication at 10 μM [1]: 27%
% Inhibition, Moyenne [1]: 26.6%
% Inhibition, Q2 (Median) [1]: 20.4%
RT, HPLC retention time [2]: 2,16 min
Experimental helical content% [3]: 17%

CSCC[C@H](NC(=O)[C@H](Cc1ccccc1)NC(=O)[C@H](CCCCN)NC(=O)[C@H](CC(=O)O)NC(=O)[C@H](CC(C)C)NC(=O)[C@H](Cc1ccccc1)NC(=O)[C@@H](NC(=O)[C@H](CCCCN)NC(=O)[C@H](CCc1ccc(O)cc1)NC(=O)[C@H](CCC(N)=O)NC(=O)[C@H](CCC(=O)O)NC(=O)[C@H](CCC(=O)O)NC(=O)[C@H](CC(C)C)NC(=O)[C@H](C)NC(=O)[C@@H](N)CO)[C@@H](C)O)C(=O)N[C@@H](Cc1c[nH]cn1)C(=O)N[C@@H](CCC(=O)O)C(=O)N[C@@H](CC(C)C)C(=O)N[C@@H](CCC(=O)O)C(=O)N[C@@H](CC(=O)O)C(=O)N[C@@H](CC(C)C)C(=O)N[C@@H](CC(C)C)C(=O)N[C@@H](Cc1ccc(O)cc1)C(=O)N[C@@H](CCC(N)=O)C(=O)N[C@@H](CC(C)C)C(=O)N[C@@H](CO)C(=O)N[C@@H](CC(C)C)C(N)=O [P9] (H-SALEEQ[hTyr]KTFLDKFMHELEDLLYQLSL-NH2)
Cell death (AnnV+PI) (Calu-3 cells [4]; [11]): 21%
Cell death (AnnV+PI) (Calu-3 cells [4]; [12]): 19%
Cell death (AnnV+PI) (Calu-3 cells [4]; [13]): 19%
Cell death (AnnV+PI) (Calu-3 cells [4]; [14]): 16%
Cell death (AnnV+PI) (Calu-3 cells [4]; [15]): 19%
Cell death (AnnV+PI) (Calu-3 cells [4]; [16]): 23%
Cell death (AnnV+PI) (Calu-3 cells [4]; [17]): 20%
Cell death (AnnV+PI) (Calu-3 cells [4]; [18]): 20%
Cell death (AnnV+PI) (Calu-3 cells [4]; [19]): 22%
% Inhibition, Moyenne [1]: 94.5%
% Inhibition, Q2 (Median) [1]: 94.5%
Cell death (AnnV+PI) (Vero-E6 cells [5]; 24 h, EXP1, flow cytometry): 3.3%
Cell death (AnnV+PI) (Vero-E6 cells [5]; 24 h, EXP2, flow cytometry): 4.72%
Cell death (AnnV+PI) (Vero-E6 cells [5]; 24 h, EXP3, flow cytometry): 3.62%
Cell death (AnnV+PI) (Vero-E6 cells [5]; 48 h, EXP1, flow cytometry): 9%
Cell death (AnnV+PI) (Vero-E6 cells [5]; 48 h, EXP2, flow cytometry): 7%
Cell death (AnnV+PI) (Vero-E6 cells [5]; 48 h, EXP3, flow cytometry): 8%
Cell death (AnnV+PI) (Vero-E6 cells [5]; 72 h, EXP1, flow cytometry): 4.4%
Cell death (AnnV+PI) (Vero-E6 cells [5]; 72 h, EXP2, flow cytometry): 2.34%
Cell death (AnnV+PI) (Vero-E6 cells [5]; 72 h, EXP3, flow cytometry): 2.25%
pIC50 [6]: 7.28
SARSCoV-2 virus titer at 1 μM (PFU mL^−1) on Calu-3 [7]: 0 PFU mL^−1
efficacy in reducing SARS-CoV-2 viral titers [7]: 100%
RT, HPLC retention time [2]: 2,31 min
Cell viability (MTT) (Vero-E6 cells [8]; 48 h, 10 µM): 95%
toxicity in Vero-E6 (Vero-E6 cells [8]): devoid of toxicity
cytotoxicity in uninfected Calu-3 cells (Calu-3 cells [9]): no cytotoxicity
kon [10, 20]: 1020 M⁻¹ s⁻¹
koff [10, 20]: < 1e-07 s⁻¹
kon [10, 21]: 1100 M⁻¹ s⁻¹
koff [10, 21]: < 1e-07 s⁻¹
kon [10, 22]: 254 M⁻¹ s⁻¹
koff [10, 22]: < 1e-07 s⁻¹
pKd [10]: > 9.00
Experimental helical content% [3]: 53%

H-SALEEQLKTFLDKFLHELEDLLYQLAL-NH2 [P3]
% Inhibition of SARSCoV-2 replication at 10 μM [1]: 4%
% Inhibition, Moyenne [1]: 3.9%
% Inhibition, Q2 (Median) [1]: 3.3%
RT, HPLC retention time [2]: 2,53 min
Experimental helical content% [3]: 64%

Ac-SALEEQLKTFLDKFLHELEDLLYQLAL-NH2 [P4]
% Inhibition of SARSCoV-2 replication at 10 μM [1]: 24%
% Inhibition, Moyenne [1]: 24.0%
% Inhibition, Q2 (Median) [1]: 16.9%
RT, HPLC retention time [2]: 2,69 min
Experimental helical content% [3]: 70%

H-AHLFSYLTTKEEQDNDAIFLQEFSKES-NH2 [P1scr, reference compound]
% Inhibition of SARSCoV-2 replication at 10 μM [1]: 7%
% Inhibition, Moyenne [1]: 6.7%
% Inhibition, Q2 (Median) [1]: 6.4%
RT, HPLC retention time [2]: 1,54 min
Experimental helical content% [3]: 8%
